Tested on: KB cells
Assay: In vitro cytotoxicity, cell proliferation assay (Cell Titer-Glo)
Format: cell-based
Conditions: concentration up to 1 μM, 120 hrs
Method: The cytotoxicity of Compound 1 was tested in a cell proliferation assay on KB cells. KB cells were obtained from ATCC and were maintained in Ham's F-12: high glucose DMEM (50:50) (Corning) supplemented with 10% heat-inactivated fetal bovine serum (Corning), 1% Penicillin/Streptomycin (Corning) and 2 mmol/L-glutamax (Thermo Fisher Scientific). One day before the assay, KB cells were harvested with Accutase and a total of 625 cells were seeded in each well of a 384-well flat bottom white polystyrene plate. Compound 1 was formulated at 2-fold starting concentration in the cell culture medium. Serial dilutions of Compound 1 (1:4 serial dilution starting from 1000 nM) was added into treatment wells. Assay plates were cultured at 37° C. in a CO2 incubator for 120 hrs before assay. For cell viability measurement, 30 μL of Cell Titer-Glo® reagent (Promega Corp. Madison, Wis.) was added into each well, and plates were processed as per product instructions. Relative luminescence was measured on an ENVISION® plate reader (Perkin-Elmer; Waltham, Mass.). Relative luminescence readings were converted to percent viability using untreated cells as controls. Data was fitted with non-linear regression analysis, using a log(inhibitor) vs. response-variable slope, 4-parameter fit with GraphPad Prism (GraphPad v 5.0, Software; San Diego, California).

SMILES: CCCCn1nc2c(N)nc3ccccc3c2c1Cc1ccc(CN)cc1 [Compound 1, 1-(4-(aminomethyl)benzyl)-2-butyl-2H-pyrazolo[3,4-c]quinolin-4-amine]
- cytotoxicity on KB cells: did not show any cytotoxicity

Source: patent publication US20220259202A1, “1-(4-(AMINOMETHYL)BENZYL)-2-BUTYL-2H-PYRAZOLO[3,4-C]QUINOLIN-4-AMINE DERIVATIVES AND RELATED COMPOUNDS AS TOLL-LIKE RECEPTOR (TLR) 7/8 AGONISTS, AS WELL AS ANTIBODY DRUG CONJUGATES THEREOF FOR USE IN CANCER THERAPY AND DIAGNOSIS” (SUTRO BIOPHARMA, INC., priority 2019, published 2022)
